# Assays:
# [1] = target: Matrix metalloproteinase-9 (Homo sapiens, UniProt P14780); experiment: Inhibition of matrix metalloprotease-9 (MMP-9)
# [2] = target: Collagenase 3 (Homo sapiens, UniProt P45452)
# Description: Inhibition of matrix metalloprotease-13 (MMP-13)
# [3] = target: T1, Interstitial collagenase (Homo sapiens, UniProt P03956); experiment: Inhibition of matrix metalloprotease-1 (MMP-1)
# T1 sequence (P03956 whole entry): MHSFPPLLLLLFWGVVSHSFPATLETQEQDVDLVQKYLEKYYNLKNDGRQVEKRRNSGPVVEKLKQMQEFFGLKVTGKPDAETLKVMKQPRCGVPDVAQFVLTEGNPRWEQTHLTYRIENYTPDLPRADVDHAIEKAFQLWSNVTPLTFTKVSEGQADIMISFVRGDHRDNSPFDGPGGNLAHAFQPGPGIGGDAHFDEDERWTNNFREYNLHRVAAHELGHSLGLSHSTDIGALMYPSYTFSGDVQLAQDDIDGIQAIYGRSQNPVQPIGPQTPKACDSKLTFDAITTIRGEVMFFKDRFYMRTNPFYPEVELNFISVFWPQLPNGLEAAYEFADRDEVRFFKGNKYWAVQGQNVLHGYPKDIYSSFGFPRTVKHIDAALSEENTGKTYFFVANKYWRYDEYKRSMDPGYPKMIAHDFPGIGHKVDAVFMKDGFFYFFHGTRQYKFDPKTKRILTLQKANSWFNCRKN
# Sequence of Matrix metalloproteinase-9 (P14780 whole entry): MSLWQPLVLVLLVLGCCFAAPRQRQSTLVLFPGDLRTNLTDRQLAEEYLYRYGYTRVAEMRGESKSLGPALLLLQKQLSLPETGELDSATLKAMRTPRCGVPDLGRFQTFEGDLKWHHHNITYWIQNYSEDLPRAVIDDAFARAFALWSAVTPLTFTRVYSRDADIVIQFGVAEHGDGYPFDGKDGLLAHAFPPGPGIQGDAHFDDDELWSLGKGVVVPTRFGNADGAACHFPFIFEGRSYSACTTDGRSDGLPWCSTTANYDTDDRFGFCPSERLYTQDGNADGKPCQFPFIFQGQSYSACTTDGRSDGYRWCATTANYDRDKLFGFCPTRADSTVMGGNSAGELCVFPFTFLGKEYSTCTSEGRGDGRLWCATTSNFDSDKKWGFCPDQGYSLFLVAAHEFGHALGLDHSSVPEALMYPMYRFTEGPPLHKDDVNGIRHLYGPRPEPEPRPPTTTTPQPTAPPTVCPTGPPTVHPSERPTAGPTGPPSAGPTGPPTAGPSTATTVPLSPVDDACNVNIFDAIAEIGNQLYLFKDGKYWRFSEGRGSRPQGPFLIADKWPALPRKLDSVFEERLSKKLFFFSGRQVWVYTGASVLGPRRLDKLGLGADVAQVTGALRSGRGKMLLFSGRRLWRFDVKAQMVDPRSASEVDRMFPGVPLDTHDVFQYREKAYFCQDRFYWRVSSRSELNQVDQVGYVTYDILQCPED
SMILES,IC50 [1] [nM],IC50 [2] [nM],IC50 [3] [nM]
COc1ccc(S(=O)(=O)N2CCCN(C(=O)C(C)(C)C)CC2C(=O)NO)cc1 (stereo unspecified),4.8,11,251
COc1ccc(S(=O)(=O)N2CCCNCC2C(=O)NO)cc1 (stereo unspecified),60,5.1,91
COc1ccc(S(=O)(=O)N2CCCN(C(=O)c3ccccc3-c3ccccc3)CC2C(=O)NO)cc1 (stereo unspecified),3.3,4.6,116
COc1ccc(S(=O)(=O)N2CCCN(C(=O)CNC(=O)OC(C)(C)C)CC2C(=O)NO)cc1 (stereo unspecified),23,16,690
O=C(NO)C1CN(C(=O)c2ccccc2)CCCN1S(=O)(=O)c1ccc(Oc2ccccc2)cc1 (stereo unspecified),1.2,1.3,22
COc1ccc(S(=O)(=O)N2CCCN(C(=O)Nc3ccccc3)CC2C(=O)NO)cc1 (stereo unspecified),18,17,309
COc1ccc(S(=O)(=O)N2CCCN(Cc3ccccc3)CC2C(=O)NO)cc1 (stereo unspecified),31,65,445
COc1ccc(S(=O)(=O)N2CCCN(C(=O)CN)CC2C(=O)NO)cc1 (stereo unspecified),157,46,703
COc1ccc(S(=O)(=O)N2CCCN(C(=O)N[C@@H](C)c3ccccc3)CC2C(=O)NO)cc1 (stereo partly specified),9.2,10.4,312
COc1ccc(S(=O)(=O)N2CCCN(C(=O)c3ccc(OC(F)(F)F)cc3)CC2C(=O)NO)cc1 (stereo unspecified),4,6.2,128
COc1ccc(S(=O)(=O)N2CCCN(C(=O)c3ccccc3)CC2C(=O)NO)cc1 (stereo unspecified),2,2.2,45
COc1ccc(S(=O)(=O)N2CCCN(C(=O)OC(C)(C)C)CC2C(=O)NO)cc1 (stereo unspecified),9.1,26,618
